This is an account of results in patent US20220313651A1, “INHIBITORS OF ZIKA VIRUS INFECTION” (priority 2019, published 2022).

Entries after “also recorded” stand apart in the source; their conditions may differ. Like-named read-outs stand apart in the source and are kept apart here.

In data set [1] the test system is ZIKV human strain PAN2015 (2015/Panama). The data set is described as follows: microbe, parasite or virus in culture. As to conditions: Vero E6 cells. The class given is cell-based, Zika virus (ZIKV). The text has this: (§1) Vero E6 and LLC-MK2 cells were maintained in Dulbecco's Modified Eagle Medium (DMEM) supplemented with 8% fetal bovine serum (FBS) and penicillin and streptomycin (P/S). C6/36 cells were maintained in Eagle's Minimal Essential Medium (EMEM) supplemented with 5% FBS and P/S. ZIKV strains, including human strains PAN2016 (2016/Panama), R116265 (2016/Mexico), PAN2015 (2015/Panama), FLR (2015/Colombia), R103451 (2015/Honduras), PRVABC59 (2015/Puerto Rico), PLCal_ZV (2013/Thailand), and IbH 30656 (1968/Nigeria), mosquito strain MEX 2-81 (2016/Mexico), and rhesus macaque strain MR 766 (1947/Uganda), were used in the studies. These ZIKV strains were cultured in Vero E6 cells, and viral titers were detected by a standard plaque-forming assay. DENV human strains, including type 1: DENV-1-V1792 (2007/Vietnam), type 2: DENV-2-V594 (2006/Puerto Rico), type 3: DENV-3-V1043 (2006/Puerto Rico), and type 4: DENV-4-PR 06-65-740 (2006/Puerto Rico), were cultured in C6/36 cells, and the viral titers were determined by plaque-forming assay as described above.
(§2) A plaque reduction inhibition assay was carried out to measure the inhibitory activity of Z-medicaments against infections of ZIKV and DENV. […] The compound-virus mixtures were then transferred to Vero E6 cells (10^5/well) and incubated at 37° C. for 1 h. […] The cells were washed thoroughly with PBS, and overlaid with DMEM containing 1% carboxymethyl cellulose and 2% FBS, followed by in vitro culture at 37° C. for 4-5 days and then staining with 0.5% crystal violet.
(§3) After removal of the unbound compounds by centrifugation after addition of 3% PEG-6000, ZIKV was incubated with Vero E6 cells at 37° C. for 1 h. The cells were then washed with PBS, overlaid with DMEM containing 1% carboxymethyl cellulose and 2% FBS, and cultured at 37° C. for 4-5 days, followed by staining with 0.5% crystal violet.

In data set [2] the test system is ZIKV mosquito strain MEX 2-81 (2016/Mexico). The data set is described as follows: Plaque reduction inhibition assay in Vero E6 cells, ZIKV MEX 2-81. The format is cell-based, Zika virus (ZIKV).
Excerpt: as §1, §2, §3

The next data set is described as follows: in vitro. As to conditions: African green monkey. Here is the method: The cytotoxicity of the Z-medicaments in Vero E6 (ZIKV target cells) was evaluated using the Cell Counting Kit-8 (CCK8).
Briefly, compounds at 2-fold serial dilutions were added to cells (2.0×10^4/well) pre-seeded in 96-well plates. The cells were cultured at 37° C. for 3 days, and incubated with CCK8 solution, followed by measurement of absorbance at 450 nm (A450 value) using microplate reader.

The target of another data set is T1, ZIKV EDIII protein (Zika virus, UniProt Q32ZE1, D679E/I627V/V603I/V629A).
T1 construct: human Fc (C)
The data set can be described thus: SPR binding to ZIKV EDIII protein. As to conditions: 1:1 binding model, read-out: KD (binding affinity) to ZIKV EDIII protein. Here is the method: Briefly, ZIKV EDIII protein or NS2B-NS3 protein were immobilized on a sensor chip (CM5) using Amine Coupling Kit. Serially diluted ST087010 was added as analytes, and HBS-EP with 10% DMSO (10 mM HEPES, 150 mM NaCl, 3 mM EDTA, 0.05% Tween-20, 10% DMSO, pH 7.4) was used as running buffer. Biacore BK evaluation software (version 1.1) was applied to analyze the data, and the curve was fitted with a 1:1 binding model.

Data set [3] has as its system ZIKV human strain R116265 (2016/Mexico). The data set can be described thus: Plaque reduction inhibition assay in Vero E6 cells, ZIKV R116265. The class given is cell-based, Zika virus (ZIKV). As to conditions: Table 7, gossypol derivatives, read-out: ZIKV strains IC50, R116265.
Excerpt: as §1, §2, §3

The nature of data set [4]: Safety of ST087010 in pregnant Ifnar1-/- mice and their pups. The format is in vivo. How it is done: FIG. 10A depicts weight changes of pregnant mothers at prenatal and postnatal time points and FIG. 10B depicts weight changes of pups at different postnatal time points. Alanine aminotransferase (ALT) (FIG. 10C) and creatinine (FIG. 10D) levels in sera of pregnant mice were measured by ALT assay and Creatinine assay, respectively, before and 4 h, 1, 3 and 5 days post-last injection of ST087010 or DMSO control. Haematoxylin and eosin (H&E) staining of tissues (FIG. 10E), including liver, spleen, kidney, and brain, from ST087010 or DMSO-treated mothers and their pups. Scale bar, 50 μm.
ST087010 was detected for its safety profiles in pregnant Ifnar1^−/− mice and their fetuses. Briefly, groups of 5 pregnant mice (8-12-week-old, E12-14) were i.p. injected with ST087010 (20 or 40 mg/kg of body weight), or DMSO (control), daily for 4 continual days. […] Sera collected before and 4 h, 1, 3 and 5 days after last injection were measured for ALT and creatinine levels using ALT and Creatinine Assay kits. Two mothers and their pups (at 3-week-old) were sacrificed, and their liver, spleen, kidney, and brain tissues were sectioned, and assessed for histopathological changes by H&E staining.

For data set [5], the target named is T2, binding between ZIKV EDIII and EDI/II-specific mAb ZKA78 (Zika virus, UniProt Q32ZE1, D679E/I627V/V603I/V629A).
T2 construct: human Fc (C)
The data set can be described thus: ELISA competition, control EDI/II-specific mAb ZKA78. As to conditions: ZKA78 does not bind EDIII. Here is the method: ELISA was also used to determine the ability of ST087010 in inhibition of the binding between ZIKV EDIII and EDIII-specific human mAbs (SMZAb5, ZKA64-LALA, ZV-67, or Z004) or EDI/II-specific human mAb (ZKA78) control. […] The plates were then sequentially incubated with HRP-conjugated anti-human IgG-Fab antibody and TMB substrate, followed by detection of A450 values. Percent inhibition (% inhibition) of compounds was calculated based on the ELISA results, and IC50 was obtained […].
A general note: An ELISA detects its analyte on a solid surface through an enzyme-linked reagent.

T2 sequence (Q32ZE1 584-695 V603I/I627V/V629A/D679E): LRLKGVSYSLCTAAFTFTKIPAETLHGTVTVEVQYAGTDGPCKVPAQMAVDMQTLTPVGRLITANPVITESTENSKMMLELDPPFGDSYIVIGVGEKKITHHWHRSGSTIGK
T1 sequence (Q32ZE1 584-695 V603I/I627V/V629A/D679E): as above

As to `C[C@@H]1CC[C@@]2(OC1)O[C@H]1[C@@H](O)[C@H]3[C@@H]4CC[C@H]5C[C@@H](O[C@@H]6O[C@H](CO)[C@H](O[C@@H]7O[C@H](CO)[C@@H](O)[C@H](O[C@@H]8OC[C@@H](O)[C@H](O)[C@H]8O)[C@H]7O[C@@H]7O[C@H](CO)[C@H](O)[C@H](O[C@@H]8O[C@H](CO)[C@@H](O)[C@H](O)[C@H]8O)[C@H]7O)[C@H](O)[C@H]6O)[C@H](O)C[C@]5(C)[C@H]4CC[C@]3(C)[C@H]1[C@@H]2C` [Digitonin, digitonin], the IC50 in data set [1] (Zika virus, Vero C1008, Table 1, read-out: IC50 against ZIKV strain PAN2015) was 5 ± 0.01 µM.

Regarding `Cc1cc2c(C(C)C)c(O)c(O)c(C=O)c2c(O)c1-c1c(C)cc2c(C(C)C)c(O)c(O)c(C=O)c2c1O` [Gossypol, gossypol], the IC50 in data set [2] (Zika virus, Vero C1008, read-out: IC50 against ZIKV strain MEX 2-81) turned out to be 2.79 ± 0.01 µM; in data set [2] (Zika virus, Vero C1008, read-out: ZIKV strains IC50, MEX 2-81), 2.93 ± 0.01 µM. The same compound yielded a CC50 at 3 days in the data set “in vitro” of 14.49 ± 0.07 µM.

In the case of `Cc1cc2c(C(C)C)c(O)c(O)c(/C=N/n3c(=O)[nH][nH]c3=O)c2c(O)c1-c1c(C)cc2c(C(C)C)c(O)c(O)c(/C=N/n3c(=O)[nH][nH]c3=O)c2c1O` [ST087010], on ZIKV EDIII protein, the Kd was determined as 4.95 µM. Further, the IC50 in data set [1] (Table 7, gossypol derivatives, read-out: ZIKV strains IC50, PAN2015) stood at 3.5 ± 0.06 µM; in data set [3], 2.91 ± 0.07 µM; in data set [2] (Vero E6 cells, Table 7, gossypol derivatives, read-out: ZIKV strains IC50, MEX 2-81) it was 2.92 ± 0.25 µM. The “Serum ALT and creatinine levels vs DMSO-treated mice, low dose” value in data set [4] (20 mg/kg) was “no significant difference”. Also, the “Serum ALT and creatinine levels vs DMSO-treated mice, high dose” value in data set [4] (40 mg/kg, 1 day after injection, elevations transient) is reported as “significantly different”. Besides, in data set [4] (20 or 40 mg/kg, vs DMSO), the “Histopathology of liver, spleen, kidney and brain, mothers and pups” value is reported as “no abnormal pathological changes; also recorded: no inflammation or cell infiltration”. For the same compound, the “ALT and creatinine levels in sera, before vs after injection” value in data set [4] (20 or 40 mg/kg, before injection and 4 h, 3 or 5 days after last injection) is reported as “no significant differences”. Besides, the “Effect on binding of EDI/II-specific mAb ZKA78 (control)” value in data set [5] is “no observable effect”.

The term IC50 denotes the concentration that inhibits the measured activity by half. One may read the Kd as the concentration at which binding is half-saturated.
